Patent publication US12552846B2, “Modified BCL9 mimetic peptides” (Sapience Therapeutics, Inc., priority 2019, dated 2026)
Square brackets hold non-standard residues; d marks the D form. Peptide text beside a SMILES is read from it. * marks the point of attachment. Octanoyl = CCCCCCCC(=O)*

Test system: HL60 promyelocytic leukemia cells
Experiment: Cytotoxicity assay in HL60 cells (Annexin V FITC / PI flow cytometry)
Type: cell-based
Settings: 48 hours; for EC50: 0-80 μM, % Viability (Annexin V low, PI low)
Procedure: We examined the cytotoxicity of peptides BCL-26 and BCL-27 using an assay in HL60 promyelocytic leukemia cells. HL60 PML suspension cells were set at a density of 3.5×10^3 cells/well in 150 μL of RPMI+1.5% fetal bovine serum (FBS) in a 96 well dish. BCL-26 or BCL-27, reconstituted at a concentration of 10 mg/mL in 20 mM His, pH 7.5, was added to each well at a volume of 50 μL to a final concentration range of 0-80 μM. Cells were incubated with peptide for 48 hours at 37° C. Cell viability was quantified by flow cytometry using abcam Annexin V FITC apoptosis detection kit. Briefly, cells were washed with PBS and resuspended in 1× assay buffer containing Annexin V FITC and propidium iodide (PI). Annexin V detects apoptotic cells, and PI stains dead cells. After staining, apoptotic cells show green fluorescence, dead cells show red and green fluorescence, and live cells show little or no fluorescence. Cells were selected for analysis based on forward scatter (FSC) vs. side scatter (SSC), and analyzed by BD Accuri C6 Plus flow cytometer to detect Annexin V-FITC binding (Ex=488 nm; Em=530 nm) using FITC signal detector and PI staining by the phycoerythrnn emission signal detector. Percentage of Annexin V^low and PI^low were quantified and presented as % Viability.
We examined the cytotoxicity of additional retro inverso and mixed chirality BCL9 mimetic peptides in HL60 cells using the assay described above.

Row | SMILES | EC50 [nM] | cytotoxic activity
1 | CC(C)C[C@@H](NC(=O)[C@@H](Cc1c[nH]c2ccccc12)NC(=O)[C@@H](N)Cc1ccccc1)C(=O)N[C@H](C)C(=O)N[C@H](CCCNC(=N)N)C(=O)N[C@H](CCC(N)=O)C(=O)N[C@H](CC(C)C)C(=O)N[C@H](C)C(=O)N[C@H](CCCNC(=N)N)C(=O)N[C@H](CC(C)C)C(=O)N[C@H](C)C(=O)N[C@H](CCC(N)=O)C(=O)N[C@H](CC(C)C)C(=O)N[C@H](C)C(=O)N[C@H](CCCCN)C(=O)N[C@H](CC(C)C)C(=O)N[C@@H](C(=O)N1CCC[C@@H]1C(=O)N[C@@H](C(=O)O)C(C)C)[C@H](C)O [BCL-99] (H-F[dW][dL][dA][dR][dQ][dL][dA][dR][dL][dA][dQ][dL][dA][dK][dL][dT][dP][dV]-OH; N-terminus and C-terminus assumed) | 2000 to 10000 | 
2 | CC(C)C[C@@H](NC(=O)[C@@H](Cc1c[nH]c2ccccc12)NC(=O)[C@@H](N)CCCNC(=N)N)C(=O)N[C@H](C)C(=O)N[C@H](CCCNC(=N)N)C(=O)N[C@H](CCC(N)=O)C(=O)N[C@H](CC(C)C)C(=O)N[C@H](C)C(=O)N[C@H](CCCNC(=N)N)C(=O)N[C@H](CC(C)C)C(=O)N[C@H](C)C(=O)N[C@H](CCC(N)=O)C(=O)N[C@H](CC(C)C)C(=O)N[C@H](C)C(=O)N[C@H](CCCCN)C(=O)N[C@H](CC(C)C)C(=O)N[C@@H](C(=O)N1CCC[C@@H]1C(=O)N[C@@H](C(=O)O)C(C)C)[C@H](C)O [BCL-100] (H-R[dW][dL][dA][dR][dQ][dL][dA][dR][dL][dA][dQ][dL][dA][dK][dL][dT][dP][dV]-OH; N-terminus and C-terminus assumed) | < 2000 | 
3 | CC(C)C[C@@H](NC(=O)[C@@H](Cc1c[nH]c2ccccc12)NC(=O)[C@H](Cc1c[nH]c2ccccc12)NC(=O)[C@H](N)Cc1ccccc1)C(=O)N[C@H](C)C(=O)N[C@H](CCCNC(=N)N)C(=O)N[C@H](CCC(N)=O)C(=O)N[C@H](CC(C)C)C(=O)N[C@H](C)C(=O)N[C@H](CCCNC(=N)N)C(=O)N[C@H](CC(C)C)C(=O)N[C@H](C)C(=O)N[C@H](CCC(N)=O)C(=O)N[C@H](CC(C)C)C(=O)N[C@H](C)C(=O)N[C@H](CCCCN)C(=O)N[C@H](CC(C)C)C(=O)N[C@@H](C(=O)N1CCC[C@@H]1C(=O)N[C@@H](C(=O)O)C(C)C)[C@H](C)O [BCL-101] (H-[dF]W[dW][dL][dA][dR][dQ][dL][dA][dR][dL][dA][dQ][dL][dA][dK][dL][dT][dP][dV]-OH; N-terminus and C-terminus assumed) | < 2000 | 
4 | CC(C)C[C@@H](NC(=O)[C@@H](CCCNC(=N)N)NC(=O)[C@@H](C)NC(=O)[C@@H](CC(C)C)NC(=O)[C@@H](CCC(N)=O)NC(=O)[C@@H](CCCNC(=N)N)NC(=O)[C@@H](CC(C)C)NC(=O)[C@@H](CC(C)C)NC(=O)[C@@H](Cc1c[nH]c2ccccc12)NC(=O)[C@H](N)Cc1c[nH]c2ccccc12)C(=O)N[C@H](C)C(=O)N[C@H](CCC(N)=O)C(=O)N[C@H](CC(C)C)C(=O)N[C@H](C)C(=O)N[C@H](CCCCN)C(=O)N[C@H](CC(C)C)C(=O)N[C@@H](C(=O)N1CCC[C@@H]1C(=O)N[C@@H](C(=O)O)C(C)C)[C@H](C)O [BCL-128] (H-[dW][dW][dL][dL][dR][dQ][dL][dA][dR][dL][dA][dQ][dL][dA][dK][dL][dT][dP][dV]-OH; N-terminus and C-terminus assumed) | < 2000 | 
5 | CC(C)C[C@@H](NC(=O)[C@@H](Cc1c[nH]c2ccccc12)NC(=O)[C@H](CCCNC(=N)N)NC(=O)[C@H](N)Cc1ccccc1)C(=O)N[C@H](C)C(=O)N[C@H](CCCNC(=N)N)C(=O)N[C@H](CCC(N)=O)C(=O)N[C@H](CC(C)C)C(=O)N[C@H](C)C(=O)N[C@H](CCCNC(=N)N)C(=O)N[C@H](CC(C)C)C(=O)N[C@H](C)C(=O)N[C@H](CCC(N)=O)C(=O)N[C@H](CC(C)C)C(=O)N[C@H](C)C(=O)N[C@H](CCCCN)C(=O)N[C@H](CC(C)C)C(=O)N[C@@H](C(=O)N1CCC[C@@H]1C(=O)N[C@@H](C(=O)O)C(C)C)[C@H](C)O [BCL-129] (H-[dF]R[dW][dL][dA][dR][dQ][dL][dA][dR][dL][dA][dQ][dL][dA][dK][dL][dT][dP][dV]-OH; N-terminus and C-terminus assumed) | < 2000 | 
6 | CC(C)C[C@@H](NC(=O)[C@@H](CCCNC(=N)N)NC(=O)[C@@H](C)NC(=O)[C@@H](CC(C)C)NC(=O)[C@@H](CCC(N)=O)NC(=O)[C@@H](CCCNC(=N)N)NC(=O)[C@H](NC(=O)[C@@H](CC(C)C)NC(=O)[C@@H](Cc1c[nH]c2ccccc12)NC(=O)[C@H](CCCNC(=N)N)NC(=O)[C@H](N)Cc1ccccc1)C(C)C)C(=O)N[C@H](C)C(=O)N[C@H](CCC(N)=O)C(=O)N[C@H](CC(C)C)C(=O)N[C@H](C)C(=O)N[C@H](CCCCN)C(=O)N[C@H](CC(C)C)C(=O)N[C@@H](C(=O)N1CCC[C@@H]1C(=O)N[C@@H](C(=O)O)C(C)C)[C@H](C)O [BCL-130] (H-[dF]R[dW][dL][dV][dR][dQ][dL][dA][dR][dL][dA][dQ][dL][dA][dK][dL][dT][dP][dV]-OH; N-terminus and C-terminus assumed) | < 2000 | 
7 | CC(C)C[C@@H](NC(=O)[C@@H](CCCNC(=N)N)NC(=O)[C@@H](C)NC(=O)[C@@H](CC(C)C)NC(=O)[C@@H](CCC(N)=O)NC(=O)[C@@H](CCCNC(=N)N)NC(=O)[C@H](NC(=O)[C@@H](CC(C)C)NC(=O)[C@@H](Cc1c[nH]c2ccccc12)NC(=O)[C@H](Cc1c[nH]c2ccccc12)NC(=O)[C@H](N)Cc1ccccc1)C(C)C)C(=O)N[C@H](C)C(=O)N[C@H](CCC(N)=O)C(=O)N[C@H](CC(C)C)C(=O)N[C@H](C)C(=O)N[C@H](CCCCN)C(=O)N[C@H](CC(C)C)C(=O)N[C@@H](C(=O)N1CCC[C@@H]1C(=O)N[C@@H](C(=O)O)C(C)C)[C@H](C)O [BCL-131] (H-[dF]W[dW][dL][dV][dR][dQ][dL][dA][dR][dL][dA][dQ][dL][dA][dK][dL][dT][dP][dV]-OH; N-terminus and C-terminus assumed) | < 2000 | 
8 | CC(C)C[C@@H](NC(=O)[C@@H](C)NC(=O)[C@@H](C)NC(=O)[C@@H](CC(C)C)NC(=O)[C@@H](CCCNC(=N)N)NC(=O)[C@@H](C)NC(=O)[C@@H](CC(C)C)NC(=O)[C@@H](CCC(N)=O)NC(=O)[C@@H](CCCNC(=N)N)NC(=O)[C@@H](C)NC(=O)[C@@H](CC(C)C)NC(=O)[C@@H](Cc1c[nH]c2ccccc12)NC(=O)[C@H](Cc1c[nH]c2ccccc12)NC(=O)[C@H](N)Cc1ccccc1)C(=O)N[C@H](C)C(=O)N[C@H](CCCCN)C(=O)N[C@H](CC(C)C)C(=O)N[C@@H](C(=O)N1CCC[C@@H]1C(=O)N[C@@H](C(=O)O)C(C)C)[C@H](C)O [BCL-132] (H-[dF]W[dW][dL][dA][dR][dQ][dL][dA][dR][dL][dA][dA][dL][dA][dK][dL][dT][dP][dV]-OH; N-terminus and C-terminus assumed) | < 2000 | 
9 | CC(C)C[C@@H](NC(=O)[C@@H](C)NC(=O)[C@@H](C)NC(=O)[C@@H](CC(C)C)NC(=O)[C@@H](CCC(N)=O)NC(=O)[C@@H](CCCNC(=N)N)NC(=O)[C@@H](C)NC(=O)[C@@H](CC(C)C)NC(=O)[C@@H](Cc1c[nH]c2ccccc12)NC(=O)[C@H](Cc1c[nH]c2ccccc12)NC(=O)[C@H](N)Cc1ccccc1)C(=O)N[C@H](C)C(=O)N[C@H](CCC(N)=O)C(=O)N[C@H](CC(C)C)C(=O)N[C@H](C)C(=O)N[C@H](CCCCN)C(=O)N[C@H](CC(C)C)C(=O)N[C@@H](C(=O)N1CCC[C@@H]1C(=O)N[C@@H](C(=O)O)C(C)C)[C@H](C)O [BCL-133] (H-[dF]W[dW][dL][dA][dR][dQ][dL][dA][dA][dL][dA][dQ][dL][dA][dK][dL][dT][dP][dV]-OH; N-terminus and C-terminus assumed) | < 2000 | 
10 | CC(C)C[C@@H](NC(=O)[C@@H](C)NC(=O)[C@@H](C)NC(=O)[C@@H](CC(C)C)NC(=O)[C@@H](CCC(N)=O)NC(=O)[C@@H](C)NC(=O)[C@@H](C)NC(=O)[C@@H](CC(C)C)NC(=O)[C@@H](Cc1c[nH]c2ccccc12)NC(=O)[C@@H](Cc1c[nH]c2ccccc12)NC(=O)CNC(=O)[C@@H](CCCNC(=N)N)NC(=O)CNC(=O)[C@@H](CC(=O)O)NC(=O)[C@@H](CO)NC(=O)[C@H]1CCCN1)C(=O)N[C@H](C)C(=O)N[C@H](CCC(N)=O)C(=O)N[C@H](CC(C)C)C(=O)N[C@H](C)C(=O)N[C@H](CCCCN)C(=O)N[C@H](CC(C)C)C(=O)N[C@@H](C(=O)N1CCC[C@@H]1C(=O)N[C@@H](C(=O)O)C(C)C)[C@H](C)O [BCL-134, reference compound] (H-[dP][dS][dD]G[dR]G[dW][dW][dL][dA][dA][dQ][dL][dA][dA][dL][dA][dQ][dL][dA][dK][dL][dT][dP][dV]-OH; N-terminus and C-terminus assumed) | > 80000 | Lack of cytotoxic activity
11 | CCCCCCCC(=O)N1CCC[C@@H]1C(=O)N[C@H](CO)C(=O)N[C@H](CC(=O)O)C(=O)NCC(=O)N[C@H](CCCNC(=N)N)C(=O)NCC(=O)N[C@H](Cc1c[nH]c2ccccc12)C(=O)N[C@H](Cc1c[nH]c2ccccc12)C(=O)N[C@H](CC(C)C)C(=O)N[C@H](C)C(=O)N[C@H](CCCNC(=N)N)C(=O)N[C@H](CCC(N)=O)C(=O)N[C@H](CC(C)C)C(=O)N[C@H](C)C(=O)N[C@H](CCCNC(=N)N)C(=O)N[C@H](CC(C)C)C(=O)N[C@H](C)C(=O)N[C@H](CCC(N)=O)C(=O)N[C@H](CC(C)C)C(=O)N[C@H](C)C(=O)N[C@H](CCCCN)C(=O)N[C@H](CC(C)C)C(=O)N[C@@H](C(=O)N1CCC[C@@H]1C(=O)N[C@@H](C(=O)O)C(C)C)[C@H](C)O [BCL-135] (Octanoyl-[dP][dS][dD]G[dR]G[dW][dW][dL][dA][dR][dQ][dL][dA][dR][dL][dA][dQ][dL][dA][dK][dL][dT][dP][dV]-OH; C-terminus assumed) | 2000 to 10000 | 
